Data reported in PubChem BioAssay AID1963960 (Molecular Pharmacology Branch, DTP, NCI, 2024).

System: MDA-MB-468 spheroids with HUVEC/MSC, viability
Assay: Anticancer human tumor MDA-MB-468 cell line growth inhibition [PI3K];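 further: spheroids exposed to agents for seven days before readout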;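 on viability, T/C: 100% = DMSO vehicle control viability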
Conditions: for IC50: curve of first compound; for viability, T/C: stronger effect = lower value
Summary of the method: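 Multi-cell spheroids combine tumor cells with HUVEC and human MSCs, treated with targeted agents alone or with inavolisib, alpelisib, duvelisib or copanlisib. Concentrations fall in half-log steps from at or near clinical Cmax, or from 10 microM where Cmax is unknown; viability read-out.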

[1] = second compound 0.00316 µM, first compound 0.0316 µM
[2] = second compound 0.00316 µM, first compound 0.1 µM
[3] = second compound 0.00316 µM, first compound 0.316 µM
[4] = second compound 0.00316 µM, first compound 1 µM
[5] = second compound 0.00316 µM, first compound 3.16 µM
[6] = second compound 0.00316 µM, first compound 10 µM
[7] = second compound 0.01 µM, first compound 0.0316 µM
[8] = second compound 0.01 µM, first compound 0.1 µM
[9] = second compound 0.01 µM, first compound 0.316 µM
[10] = second compound 0.01 µM, first compound 1 µM
[11] = second compound 0.01 µM, first compound 3.16 µM
[12] = second compound 0.01 µM, first compound 10 µM
[13] = second compound 0.0316 µM, first compound 0.0316 µM
[14] = second compound 0.0316 µM, first compound 0.1 µM
[15] = second compound 0.0316 µM, first compound 0.316 µM
[16] = second compound 0.0316 µM, first compound 1 µM
[17] = second compound 0.0316 µM, first compound 3.16 µM
[18] = second compound 0.0316 µM, first compound 10 µM
[19] = second compound 0.1 µM, first compound 0.0316 µM
[20] = second compound 0.1 µM, first compound 0.1 µM
[21] = second compound 0.1 µM, first compound 0.316 µM
[22] = second compound 0.1 µM, first compound 1 µM
[23] = second compound 0.1 µM, first compound 3.16 µM
[24] = second compound 0.1 µM, first compound 10 µM
[25] = second compound 0.316 µM, first compound 0.0316 µM
[26] = second compound 0.316 µM, first compound 0.1 µM
[27] = second compound 0.316 µM, first compound 0.316 µM
[28] = second compound 0.316 µM, first compound 1 µM
[29] = second compound 0.316 µM, first compound 3.16 µM
[30] = second compound 0.316 µM, first compound 10 µM
[31] = second compound 1 µM, first compound 0.0316 µM
[32] = second compound 1 µM, first compound 0.1 µM
[33] = second compound 1 µM, first compound 0.316 µM
[34] = second compound 1 µM, first compound 1 µM
[35] = second compound 1 µM, first compound 3.16 µM
[36] = second compound 1 µM, first compound 10 µM

SMILES: C#Cc1c(F)ccc2cc(O)cc(-c3ncc4c(N5CC6CCC(C5)N6)nc(OCC56CCCN5CC(F)C6)nc4c3F)c12 (stereo not drawn) + COc1c(OCCCN2CCOCC2)ccc2c3n(c(=NC(=O)c4cnc(N)nc4)nc12)CCN3
- IC50 (second compound 0.00316 µM): > 10 µM
- IC50 (second compound 0.01 µM): > 10 µM
- IC50 (second compound 0.0316 µM): 7.83 µM
- IC50 (second compound 0.1 µM): 3.67 µM
- IC50 (second compound 0.316 µM): < 0.0316 µM
- IC50 (second compound 1 µM): < 0.0316 µM
- viability, T/C [1]: 89.4%
- viability, T/C [2]: 82.8%
- viability, T/C [3]: 96.7%
- viability, T/C [4]: 96.8%
- viability, T/C [5]: 84.5%
- viability, T/C [6]: 56.9%
- viability, T/C [7]: 72.7%
- viability, T/C [8]: 91.3%
- viability, T/C [9]: 87%
- viability, T/C [10]: 87%
- viability, T/C [11]: 77.7%
- viability, T/C [12]: 61%
- viability, T/C [13]: 76.5%
- viability, T/C [14]: 68.8%
- viability, T/C [15]: 74.2%
- viability, T/C [16]: 83.9%
- viability, T/C [17]: 72.4%
- viability, T/C [18]: 43.7%
- viability, T/C [19]: 53.9%
- viability, T/C [20]: 52%
- viability, T/C [21]: 61.3%
- viability, T/C [22]: 61.8%
- viability, T/C [23]: 52.8%
- viability, T/C [24]: 24.6%
- viability, T/C [25]: 25.1%
- viability, T/C [26]: 23%
- viability, T/C [27]: 25.9%
- viability, T/C [28]: 27.2%
- viability, T/C [29]: 20.1%
- viability, T/C [30]: 6.75%
- viability, T/C [31]: 2.58%
- viability, T/C [32]: 2.36%
- viability, T/C [33]: 2.21%
- viability, T/C [34]: 2.61%
- viability, T/C [35]: 1.99%
- viability, T/C [36]: 0.74%

SMILES: C=CC(=O)N1CCN(c2nc(=O)n(-c3c(C)ccnc3C(C)C)c3nc(-c4c(O)cccc4F)c(F)cc23)C(C)C1 (stereo not drawn) + COc1c(OCCCN2CCOCC2)ccc2c3n(c(=NC(=O)c4cnc(N)nc4)nc12)CCN3
- IC50 (second compound 0.00316 µM): > 10 µM
- IC50 (second compound 0.01 µM): > 10 µM
- IC50 (second compound 0.0316 µM): > 10 µM
- IC50 (second compound 0.1 µM): > 10 µM
- IC50 (second compound 0.316 µM): < 0.0316 µM
- IC50 (second compound 1 µM): < 0.0316 µM
- viability, T/C [1]: 92%
- viability, T/C [2]: 92.9%
- viability, T/C [3]: 97.5%
- viability, T/C [4]: 109%
- viability, T/C [5]: 104%
- viability, T/C [6]: 79.1%
- viability, T/C [7]: 81.1%
- viability, T/C [8]: 80.5%
- viability, T/C [9]: 102%
- viability, T/C [10]: 97%
- viability, T/C [11]: 99.7%
- viability, T/C [12]: 70.1%
- viability, T/C [13]: 75.2%
- viability, T/C [14]: 73.4%
- viability, T/C [15]: 79.8%
- viability, T/C [16]: 89.7%
- viability, T/C [17]: 80.2%
- viability, T/C [18]: 65%
- viability, T/C [19]: 56.7%
- viability, T/C [20]: 58.4%
- viability, T/C [21]: 50.9%
- viability, T/C [22]: 63.1%
- viability, T/C [23]: 61.5%
- viability, T/C [24]: 41.3%
- viability, T/C [25]: 29.9%
- viability, T/C [26]: 26.6%
- viability, T/C [27]: 27.8%
- viability, T/C [28]: 31.4%
- viability, T/C [29]: 28.2%
- viability, T/C [30]: 18.4%
- viability, T/C [31]: 4.14%
- viability, T/C [32]: 3.02%
- viability, T/C [33]: 3.41%
- viability, T/C [34]: 3.9%
- viability, T/C [35]: 3.76%
- viability, T/C [36]: 2.73%

SMILES: CC(Cn1ccc(-c2ccc(C#N)c(Cl)c2)n1)NC(=O)c1cc(C(C)O)[nH]n1 (stereo not drawn) + COc1c(OCCCN2CCOCC2)ccc2c3n(c(=NC(=O)c4cnc(N)nc4)nc12)CCN3
- IC50 (second compound 0.00316 µM): > 10 µM
- IC50 (second compound 0.01 µM): > 10 µM
- IC50 (second compound 0.0316 µM): > 10 µM
- IC50 (second compound 0.1 µM): > 10 µM
- IC50 (second compound 0.316 µM): < 0.0316 µM
- IC50 (second compound 1 µM): < 0.0316 µM
- viability, T/C [1]: 88.8%
- viability, T/C [2]: 90.3%
- viability, T/C [3]: 94.3%
- viability, T/C [4]: 92.3%
- viability, T/C [5]: 90.5%
- viability, T/C [6]: 75.3%
- viability, T/C [7]: 92.2%
- viability, T/C [8]: 91.3%
- viability, T/C [9]: 83.4%
- viability, T/C [10]: 95.3%
- viability, T/C [11]: 85.3%
- viability, T/C [12]: 63.7%
- viability, T/C [13]: 83.6%
- viability, T/C [14]: 75.7%
- viability, T/C [15]: 87.1%
- viability, T/C [16]: 80.5%
- viability, T/C [17]: 80.9%
- viability, T/C [18]: 62.8%
- viability, T/C [19]: 55.8%
- viability, T/C [20]: 57%
- viability, T/C [21]: 60.9%
- viability, T/C [22]: 59.3%
- viability, T/C [23]: 56%
- viability, T/C [24]: 62.3%
- viability, T/C [25]: 26.9%
- viability, T/C [26]: 24.4%
- viability, T/C [27]: 27.3%
- viability, T/C [28]: 26.1%
- viability, T/C [29]: 26.7%
- viability, T/C [30]: 27.2%
- viability, T/C [31]: 2.86%
- viability, T/C [32]: 2.48%
- viability, T/C [33]: 2.64%
- viability, T/C [34]: 3.21%
- viability, T/C [35]: 3.72%
- viability, T/C [36]: 2.3%

SMILES: CC1(C)CCC(Nc2ncc(C(F)(F)F)c(-c3c[nH]c4c(P(C)(C)=O)c(C#N)ccc34)n2)CN1 (stereo not drawn) + COc1c(OCCCN2CCOCC2)ccc2c3n(c(=NC(=O)c4cnc(N)nc4)nc12)CCN3
- IC50 (second compound 0.00316 µM): < 0.0316 µM
- IC50 (second compound 0.01 µM): < 0.0316 µM
- IC50 (second compound 0.0316 µM): < 0.0316 µM
- IC50 (second compound 0.1 µM): < 0.0316 µM
- IC50 (second compound 0.316 µM): < 0.0316 µM
- IC50 (second compound 1 µM): < 0.0316 µM
- viability, T/C [1]: 9.69%
- viability, T/C [2]: 8.09%
- viability, T/C [3]: 7.16%
- viability, T/C [4]: 7.44%
- viability, T/C [5]: 6.56%
- viability, T/C [6]: 1.22%
- viability, T/C [7]: 8.56%
- viability, T/C [8]: 7.53%
- viability, T/C [9]: 6.69%
- viability, T/C [10]: 6.66%
- viability, T/C [11]: 6.59%
- viability, T/C [12]: 1.41%
- viability, T/C [13]: 8.31%
- viability, T/C [14]: 8.47%
- viability, T/C [15]: 7.44%
- viability, T/C [16]: 6.08%
- viability, T/C [17]: 6.49%
- viability, T/C [18]: 1.91%
- viability, T/C [19]: 9.69%
- viability, T/C [20]: 8.3%
- viability, T/C [21]: 7.97%
- viability, T/C [22]: 6.87%
- viability, T/C [23]: 6%
- viability, T/C [24]: 2.2%
- viability, T/C [25]: 8.16%
- viability, T/C [26]: 6.87%
- viability, T/C [27]: 6.83%
- viability, T/C [28]: 5.84%
- viability, T/C [29]: 4.35%
- viability, T/C [30]: 1.03%
- viability, T/C [31]: 4.03%
- viability, T/C [32]: 3.59%
- viability, T/C [33]: 3.45%
- viability, T/C [34]: 4.91%
- viability, T/C [35]: 3.08%
- viability, T/C [36]: 0.82%
